Measured values taken from patent publication US8629132B2, “Kinase inhibitors” (Genosco, priority 2009, dated 2014).
Values belong to the compound of their own block, whether it stands above or below them.

Columns and labels:
FAK = target: T1, FAK (Homo sapiens, UniProt Q05397); test: Kinase inhibition assay: FAK; type: biochemical; conditions: at 1 μM concentration
T1 construct: truncated human FAK, RET, FLT3, JAK2, and LRRK2; purchased Carna Biosciences
Procedure: (§1) Compounds of the present invention were tested for their capacity to inhibit a kinase panel which includes, but are not limited to, spleen tyrosine kinase (SYK), zeta-chain-associated protein kinase 70 (ZAP70), PTK2B protein tyrosine kinase 2 (PYK2), focal adhesion kinase (FAK), provirus integration of maloney kinase 1 (PIM1), rearranged during transfection kinase (RET), Fms-like tyrosine kinase 3 (FLT3), Janus kinase 2 (JAK2), and leucine-rich repeat kinase 2 (LRRK2).
(§2) Inhibition of SYK, ZAP70, PYK2, FAK, PIM1, RET, FLT3, JAK2 and LRRK2 Kinase Activity
(§3) Compounds of the invention were initially diluted to 10 mM in 100% DMSO (CALBIOCHEM™) for storage and made into kinase buffer solution to create a compound concentration ranging from 1 uM and 10 uM. Serial dilutions of compounds of the invention were dispensed into a 96-well plate (GREINER BIOSCIENCES™) at 6 μL each. Purified full-length human SYK, ZAP70, PIM1, PYK2 and truncated human FAK, RET, FLT3, JAK2, and LRRK2 (CARNA BIOSCIENCES™) were diluted in kinase buffer and added to the compound solutions and pre-incubated for 30 minutes at room temperature (1 hour for PYK2). […] The reaction mixture was incubated for 1 hour (2 hours for PYK2). Following the incubation, the stop solution made with EDTA, water, and Lance detection buffer ([…]™) was added (12μL each) to stop phosphorylation. […] The IC50 value of test compound was calculated at Gradpad Prism 5 unless specified otherwise.

PYK2 = target: T2, PYK2 (Homo sapiens, UniProt Q14289); test: Kinase inhibition assay: PYK2; type: biochemical; conditions: at 1 μM concentration
T2 construct: Purified full-length human SYK, ZAP70, PIM1, PYK2; purchased Carna Biosciences
Procedure: as §1, §2, §3

SYK = target: T3, SYK (Homo sapiens, UniProt P43405); test: Kinase inhibition assay: SYK; type: biochemical; conditions: at 1 μM concentration
T3 construct: Purified full-length human SYK, ZAP70, PIM1, PYK2; purchased Carna Biosciences
Procedure: as §1, §2, §3

ZAP70 = target: T4, ZAP70 (Homo sapiens, UniProt P43403); test: Kinase inhibition assay: ZAP70; type: biochemical; conditions: at 1 μM concentration
T4 construct: Purified full-length human SYK, ZAP70, PIM1, PYK2; purchased Carna Biosciences
T4 sequence (P43403 1-619): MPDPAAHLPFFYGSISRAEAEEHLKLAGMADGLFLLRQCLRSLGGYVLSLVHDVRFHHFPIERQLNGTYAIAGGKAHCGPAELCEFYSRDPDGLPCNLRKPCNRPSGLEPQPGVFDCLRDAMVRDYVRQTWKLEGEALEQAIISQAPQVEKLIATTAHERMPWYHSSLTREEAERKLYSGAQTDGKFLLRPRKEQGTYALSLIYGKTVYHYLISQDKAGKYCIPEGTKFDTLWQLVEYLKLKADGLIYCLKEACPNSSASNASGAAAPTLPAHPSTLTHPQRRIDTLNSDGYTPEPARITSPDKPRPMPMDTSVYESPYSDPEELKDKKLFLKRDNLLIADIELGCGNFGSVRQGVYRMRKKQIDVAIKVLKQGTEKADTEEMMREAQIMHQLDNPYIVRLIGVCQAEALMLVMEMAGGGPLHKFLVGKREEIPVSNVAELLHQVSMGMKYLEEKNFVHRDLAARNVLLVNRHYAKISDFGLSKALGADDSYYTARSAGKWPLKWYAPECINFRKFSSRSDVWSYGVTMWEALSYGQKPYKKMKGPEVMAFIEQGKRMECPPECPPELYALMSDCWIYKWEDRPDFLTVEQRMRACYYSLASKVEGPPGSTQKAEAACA
Procedure: as §1, §2, §3

LRRK2 = target: T5, LRRK2 (Homo sapiens, UniProt Q5S007); test: Kinase inhibition assay: LRRK2; type: biochemical; conditions: for inhibition at 1 µM: at 1 μM concentration
T5 construct: truncated human FAK, RET, FLT3, JAK2, and LRRK2; purchased Carna Biosciences
Procedure: as §1, §2, §3

JAK2 = JAK2 (Homo sapiens, UniProt O60674); test: Kinase inhibition assay: JAK2; type: biochemical; design: truncated human FAK, RET, FLT3, JAK2, and LRRK2; purchased Carna Biosciences
Procedure: as §1, §2, §3

RET = target: T6, RET (Homo sapiens, UniProt P07949); test: Kinase inhibition assay: RET; type: biochemical
T6 construct: truncated human FAK, RET, FLT3, JAK2, and LRRK2; purchased Carna Biosciences
T6 sequence (P07949 658-1114 limits assumed): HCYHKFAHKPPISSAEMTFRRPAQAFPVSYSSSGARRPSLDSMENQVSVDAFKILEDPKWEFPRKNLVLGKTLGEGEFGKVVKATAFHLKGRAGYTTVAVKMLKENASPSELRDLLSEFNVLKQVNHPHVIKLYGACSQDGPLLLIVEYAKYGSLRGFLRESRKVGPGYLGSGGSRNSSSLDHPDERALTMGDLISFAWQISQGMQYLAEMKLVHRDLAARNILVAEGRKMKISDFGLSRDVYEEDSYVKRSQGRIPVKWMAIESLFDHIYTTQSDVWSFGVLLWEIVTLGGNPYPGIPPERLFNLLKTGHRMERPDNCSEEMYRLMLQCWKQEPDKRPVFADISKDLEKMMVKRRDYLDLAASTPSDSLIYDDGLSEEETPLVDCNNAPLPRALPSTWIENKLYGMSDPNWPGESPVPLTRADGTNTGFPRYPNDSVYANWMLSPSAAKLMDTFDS
Procedure: as §1, §2, §3

FLT3 = target: T7, FLT3 (Homo sapiens, UniProt P36888); test: Kinase inhibition assay: FLT3; type: biochemical
T7 construct: truncated human FAK, RET, FLT3, JAK2, and LRRK2; purchased Carna Biosciences
T7 sequence (P36888 564-993 limits assumed): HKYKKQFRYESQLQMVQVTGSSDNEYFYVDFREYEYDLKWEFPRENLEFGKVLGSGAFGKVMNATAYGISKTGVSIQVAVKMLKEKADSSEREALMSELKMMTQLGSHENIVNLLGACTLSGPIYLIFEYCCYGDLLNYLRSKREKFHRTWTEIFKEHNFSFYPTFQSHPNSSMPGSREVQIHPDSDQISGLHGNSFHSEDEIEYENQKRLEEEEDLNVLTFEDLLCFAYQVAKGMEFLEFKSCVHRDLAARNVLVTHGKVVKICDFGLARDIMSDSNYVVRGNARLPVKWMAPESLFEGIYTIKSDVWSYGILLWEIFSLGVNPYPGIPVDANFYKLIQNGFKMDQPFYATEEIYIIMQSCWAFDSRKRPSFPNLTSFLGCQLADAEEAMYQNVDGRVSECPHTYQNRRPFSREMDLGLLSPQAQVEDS
Procedure: as §1, §2, §3

HEL cells = test: Cell viability assay: JAK2 inhibition; type: cell-based, human; conditions: for IC50: Homo sapiens, 72-hour incubation, HEL cells expressing JAK2 V617F, read-out: Cell Viability: JAK2 kinase Inhibition HEL (IC50 nM)
Procedure: Compounds of the invention are tested for their effects on JAK2 inhibition in human erythroleukemic cell line (HEL) to illustrate potential efficacy at the cellular level. The Janus-associated kinase (JAK) family, comprised of four different protein tyrosine kinases JAK1, JAK2, JAK3, and TYK2, plays an important role in cellular survival, proliferation, and differentiation. V617F, a unique mutation in the JAK2 gene (a valine-to-phenylalanine substitution) results in constitutive kinase activity and promotes deregulated hematopoiesis. JAK2 V617F is frequently detected in myeloproliferative disorders (MPDs), a group of clonal hematopoietic stem cell disorders that include polycythemia vera (PV), essential thrombocythemia (ET), and idiopathic myelofibrosis (IMF), all of which have the potential to transform to acute myeloid leukemia. JAK2 V617F is constitutively phosphorylated and able to activate downstream signaling in the absence of cytokine stimulation.
Compounds of the present invention were tested for their effects on viability of HEL cells. For cell viability assay, HEL cells expressing human JAK2 V617F were obtained from the American Type Culture Collection (ATCC, Manassas, Va.). This cell line was maintained with Roswell Park Memorial Institute (RPMI) medium (HyClone™) containing 10 bovine calf serum (BCS; Hyclone™) supplemented iron. The HEL cells were seeded at 2×10^4 cells in 96 well culture plates, and serially diluted compound was then added. After a 72-hour incubation period at 37° C., viability of cells was measured using the ATPLite 1 step assay (Perkin-Elmer™) that is based on the quantification of ATP from viable cells. CellTiter Aqueous assay (Promega™) was also performed in parallel as an orthogonal assay. IC50 values were calculated using nonlinear regression and defined as the concentration needed for a 50 reduction in luminescence or absorbance treated versus untreated control cells (Prism™ Software).

MV4-11 cells = test: Cell viability assay: FLT3-ITD-positive cells; type: cell-based, human; conditions: for IC50: Homo sapiens, MV4-11, 72-hour incubation, read-out: Viability of FLT3-ITD Induced Cancer Cell Line MV-4-11 (IC50 nM)
Procedure: Compounds of the invention were tested for their effects on inhibition of FLT3-ITD in human acute leukemia cell line (MV4-11). FLT3 is primarily expressed in immature hematopoietic progenitor as well as in mature myeloid cells. It belongs to type III receptor tyrosine kinase (RTK) family including KIT, FMS, and PDGFR. It is activated by binding to FL, which leads to increased kinase activity and activation of downstream signaling pathway including STATS, Ras, and PI3Kinase.
Compounds of the invention were tested for cell viability effect on MV4-11 cells. For cell viability assay, MV4-11 cells expressing human FLT3-ITD were obtained from the American Type Culture Collection (ATCC, Manassas, Va.). This cell line was maintained with an Roswell Park Memorial Institute (RPMI) medium (HyClone™) containing 10 bovine calf serum (BCS; Hyclone™) supplemented iron. The MV4-11 cells were seeded at 2×10^4 cells in 96-well culture plates, and serially diluted compound was then added. After a 72-hour incubation period at 37° C., cell viability was measured using the ATPLite 1 step assay (Perkin-Elmer™) that is based on the quantification of ATP from viable cells. CellTiter Aqueous assay (Promega™) was also performed in parallel as an orthogonal assay. IC50 values were calculated using nonlinear regression and defined as the concentration needed for a 50 reduction in luminescence or absorbance treated versus untreated control cells (Prism™ Software).

T5 sequence (Q5S007 970-2527 limits assumed): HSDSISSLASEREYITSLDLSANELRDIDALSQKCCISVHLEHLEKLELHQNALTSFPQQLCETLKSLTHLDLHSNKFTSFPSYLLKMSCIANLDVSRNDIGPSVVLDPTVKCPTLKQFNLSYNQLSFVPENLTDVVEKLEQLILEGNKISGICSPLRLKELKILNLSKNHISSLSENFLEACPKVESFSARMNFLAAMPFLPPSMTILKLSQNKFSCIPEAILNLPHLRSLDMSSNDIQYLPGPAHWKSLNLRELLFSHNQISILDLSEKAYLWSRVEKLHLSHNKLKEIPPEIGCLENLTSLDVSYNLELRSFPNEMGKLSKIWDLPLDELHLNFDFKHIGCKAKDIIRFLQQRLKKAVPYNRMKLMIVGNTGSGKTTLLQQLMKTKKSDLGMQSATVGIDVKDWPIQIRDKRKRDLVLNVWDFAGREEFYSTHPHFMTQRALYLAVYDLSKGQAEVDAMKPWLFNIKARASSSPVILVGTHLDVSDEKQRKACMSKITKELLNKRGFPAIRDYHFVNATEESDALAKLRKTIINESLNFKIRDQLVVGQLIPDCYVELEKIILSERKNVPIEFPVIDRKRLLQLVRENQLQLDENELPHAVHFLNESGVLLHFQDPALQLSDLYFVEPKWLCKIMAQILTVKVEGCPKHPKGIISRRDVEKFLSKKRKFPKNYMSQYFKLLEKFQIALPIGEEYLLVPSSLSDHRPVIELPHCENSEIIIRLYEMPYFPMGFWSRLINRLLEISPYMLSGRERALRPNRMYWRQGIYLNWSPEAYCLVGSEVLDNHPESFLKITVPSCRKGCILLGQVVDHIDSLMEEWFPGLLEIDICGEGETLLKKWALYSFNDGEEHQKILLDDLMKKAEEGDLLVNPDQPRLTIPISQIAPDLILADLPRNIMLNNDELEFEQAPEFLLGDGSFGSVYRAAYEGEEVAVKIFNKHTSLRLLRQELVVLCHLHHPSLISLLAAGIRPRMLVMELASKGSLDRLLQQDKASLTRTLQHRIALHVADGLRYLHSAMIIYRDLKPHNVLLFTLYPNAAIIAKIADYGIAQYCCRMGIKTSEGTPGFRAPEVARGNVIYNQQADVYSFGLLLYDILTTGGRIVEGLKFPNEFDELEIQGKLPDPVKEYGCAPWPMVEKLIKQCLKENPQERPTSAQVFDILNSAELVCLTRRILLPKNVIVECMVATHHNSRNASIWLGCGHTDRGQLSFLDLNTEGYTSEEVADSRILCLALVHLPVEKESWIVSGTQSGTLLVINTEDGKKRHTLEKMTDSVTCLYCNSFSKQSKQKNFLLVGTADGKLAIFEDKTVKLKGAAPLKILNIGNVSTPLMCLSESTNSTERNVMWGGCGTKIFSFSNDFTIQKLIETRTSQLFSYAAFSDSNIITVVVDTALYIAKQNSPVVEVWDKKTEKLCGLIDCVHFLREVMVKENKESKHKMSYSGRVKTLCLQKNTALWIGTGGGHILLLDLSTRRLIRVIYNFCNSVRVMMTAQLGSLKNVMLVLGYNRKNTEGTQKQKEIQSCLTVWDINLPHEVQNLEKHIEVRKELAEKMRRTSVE
Sequence of JAK2 (O60674 826-1132 limits assumed): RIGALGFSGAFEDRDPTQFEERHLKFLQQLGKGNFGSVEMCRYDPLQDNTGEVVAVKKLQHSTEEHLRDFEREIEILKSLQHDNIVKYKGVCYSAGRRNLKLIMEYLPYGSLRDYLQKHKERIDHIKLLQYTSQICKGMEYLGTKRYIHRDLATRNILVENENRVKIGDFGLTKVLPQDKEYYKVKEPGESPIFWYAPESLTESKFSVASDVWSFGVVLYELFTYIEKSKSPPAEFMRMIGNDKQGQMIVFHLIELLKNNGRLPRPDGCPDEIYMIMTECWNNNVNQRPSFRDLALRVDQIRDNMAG
T2 sequence (Q14289 whole entry): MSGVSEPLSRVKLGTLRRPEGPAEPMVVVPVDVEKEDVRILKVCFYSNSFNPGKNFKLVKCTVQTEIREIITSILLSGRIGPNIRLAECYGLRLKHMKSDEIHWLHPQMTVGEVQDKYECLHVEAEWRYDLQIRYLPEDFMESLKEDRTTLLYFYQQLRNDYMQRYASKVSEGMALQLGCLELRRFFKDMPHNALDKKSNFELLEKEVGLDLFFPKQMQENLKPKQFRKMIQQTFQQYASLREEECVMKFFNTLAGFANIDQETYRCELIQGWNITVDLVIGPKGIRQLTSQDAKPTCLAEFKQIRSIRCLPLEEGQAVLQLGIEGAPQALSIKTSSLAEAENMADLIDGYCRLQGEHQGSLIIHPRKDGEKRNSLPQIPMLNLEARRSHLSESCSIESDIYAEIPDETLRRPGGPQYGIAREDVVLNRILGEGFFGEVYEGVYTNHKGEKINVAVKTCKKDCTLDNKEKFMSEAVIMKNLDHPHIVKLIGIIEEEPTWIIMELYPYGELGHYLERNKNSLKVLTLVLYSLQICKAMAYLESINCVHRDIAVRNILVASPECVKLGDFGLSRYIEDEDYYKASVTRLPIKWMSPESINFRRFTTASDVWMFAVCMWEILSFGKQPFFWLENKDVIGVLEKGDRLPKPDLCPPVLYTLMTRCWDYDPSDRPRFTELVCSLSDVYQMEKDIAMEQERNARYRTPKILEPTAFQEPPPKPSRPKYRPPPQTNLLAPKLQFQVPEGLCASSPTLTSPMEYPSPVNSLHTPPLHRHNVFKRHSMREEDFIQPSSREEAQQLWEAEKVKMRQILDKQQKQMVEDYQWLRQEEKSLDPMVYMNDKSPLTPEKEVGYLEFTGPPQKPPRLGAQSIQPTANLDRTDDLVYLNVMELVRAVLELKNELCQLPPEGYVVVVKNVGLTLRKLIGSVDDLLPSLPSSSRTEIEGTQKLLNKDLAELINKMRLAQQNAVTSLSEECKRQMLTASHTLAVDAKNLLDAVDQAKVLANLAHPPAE
T1 sequence (Q05397 376-1052 limits assumed): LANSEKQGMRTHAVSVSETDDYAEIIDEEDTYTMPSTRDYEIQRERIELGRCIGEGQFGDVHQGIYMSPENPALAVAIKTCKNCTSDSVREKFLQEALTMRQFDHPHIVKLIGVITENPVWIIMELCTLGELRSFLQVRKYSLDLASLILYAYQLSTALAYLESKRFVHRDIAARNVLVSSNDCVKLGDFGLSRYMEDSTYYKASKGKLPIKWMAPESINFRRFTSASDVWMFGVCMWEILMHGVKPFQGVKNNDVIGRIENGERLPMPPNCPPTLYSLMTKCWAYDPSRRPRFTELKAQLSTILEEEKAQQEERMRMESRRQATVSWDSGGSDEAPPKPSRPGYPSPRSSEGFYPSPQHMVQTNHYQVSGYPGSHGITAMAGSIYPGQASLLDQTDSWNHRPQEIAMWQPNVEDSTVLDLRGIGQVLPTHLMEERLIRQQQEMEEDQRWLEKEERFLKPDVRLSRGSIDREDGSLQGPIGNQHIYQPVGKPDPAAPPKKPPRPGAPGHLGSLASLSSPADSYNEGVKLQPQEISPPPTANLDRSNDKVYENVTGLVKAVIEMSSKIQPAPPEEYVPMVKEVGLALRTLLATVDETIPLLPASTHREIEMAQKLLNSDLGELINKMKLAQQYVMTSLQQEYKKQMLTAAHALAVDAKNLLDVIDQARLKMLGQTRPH

Structure (SMILES): COc1cc(Nc2ncc(F)c(-n3cc(C)c(CO)c3)n2)cc(OC)c1 [Compound 16, (1-(2-(3,5-dimethoxy-phenylamino)-5-fluoro-pyrimidin-4-yl)-4-methyl-1H-pyrrol-3-yl)methanol]
inhibition at 1 µM (FAK): 34.1%
inhibition at 1 µM (PYK2): 84.9%
inhibition at 1 µM (SYK): 80.7%
inhibition at 1 µM (ZAP70): 31.9%

Structure (SMILES): Cc1cc(C)cc(Nc2nccc(-n3cc(C(=O)N4CC[C@@H](O)C4)c(C)n3)n2)c1 [Compound 32, (R)-(1-(2-(3,5-dimethylphenylamino)pyrimidin-4-yl)-3-methyl-1H-pyrazol-4-yl)(3-hydroxypyrrolidin-1-yl)methanone]
inhibition at 1 µM (LRRK2): 44.3%
inhibition at 1 µM (JAK2; at 1 μM concentration): 40%
IC50 (RET): 51.3 nM

Structure (SMILES): Cc1cc(C)cc(Nc2nccc(-n3cc(C(=O)N(C)CCO)c(C)n3)n2)c1 [Compound 29, 1-(2-(3,5-dimethylphenylamino)pyrimidin-4-yl)-N-(2-hydroxyethyl)-N,3-dimethyl-1H-pyrazole-4-carboxamide]
inhibition at 1 µM (FLT3; at 1 μM concentration): 53%
inhibition at 1 µM (LRRK2): 31.4%
inhibition at 1 µM (RET; at 1 μM concentration): 42%

Structure (SMILES): CNC(=O)c1cc(Oc2ccc(NC(=O)Nc3ccc(Cl)c(C(F)(F)F)c3)cc2)ccn1 [Sorafenib, reference compound]
IC50 (HEL cells): > 1000 nM

More lines, main results first:

IC50 (FLT3): 6.8 nM
IC50 (JAK2): 1.6 nM
IC50 (RET): 40.4 nM
Structure (SMILES): Cc1cn(-c2nc(Nc3ccc(N4CC[C@H](O)C4)c(C)c3)ncc2C)cc1CO [Compound 24, (S)-1-(4-(4-(3-(hydroxyl-methyl)-4-methyl-1H-pyrrol-1-yl)-5-methyl-pyrimidin-2-ylamino)-2-methylphenyl)pyrrolidin-3-ol]
inhibition level compared with Sorafenib (HEL cells; HEL): greater than those exhibited by Sorafenib
IC50 (HEL cells): 229 nM

inhibition at 1 µM (FAK): 13.9%
inhibition at 1 µM (PYK2): 30.7%
inhibition at 1 µM (SYK): 99.3%
Structure (SMILES): Cc1cc(C)cc(Nc2nccc(-n3cc(C)c(CN4CC[C@@H](O)C4)c3)n2)c1 [Compound 41, (R)-1-((1-(2-(3,5-dimethylphenylamino)pyrimidin-4-yl)-4-methyl-1H-pyrrol-3-yl)methyl)pyrrolidin-3-ol]

IC50 (FLT3): 3.6 nM
IC50 (MV4-11 cells): 79.2 nM
IC50 (JAK2): 65.1 nM
IC50 (RET): 35.8 nM
Structure (SMILES): COc1cc(Nc2ncc(C)c(-n3cc(C)c(CN4CCCN(C(=O)C(C)(C)C)CC4)c3)n2)cc(OC)c1OC [Compound 97, 2,2-dimethyl-1-(4-((4-methyl-1-(5-methyl-2-(3,4,5-trimethoxyphenylamino)pyrimidin-4-yl)-1H-pyrrol-3-yl)methyl)-1,4-diazepan-1-yl)propan-1-one]

IC50 (FLT3): 0.4 nM
IC50 (LRRK2): 424 nM
IC50 (MV4-11 cells): 1.5 nM
IC50 (JAK2): 36.5 nM
IC50 (RET): 5.2 nM
Structure (SMILES): COc1cc(Nc2ncc(C)c(-n3cc(C)c(CN4CC(O)C4)c3)n2)cc(OC)c1OC [Compound 91, 1-((4-methyl-1-(5-methyl-2-(3,4,5-trimethoxyphenylamino)pyrimidin-4-yl)-1H-pyrrol-3-yl)methyl)azetidin-3-ol]
inhibition level compared with Vandetinib and Sunitinib (MV4-11 cells; FLT3 ITD induced cancer cell line (MV4-11)): greater than those exhibited by Vandetinib and Sunitinib
